Laboratory results published in patent publication US7521478B2, “Total synthesis of myriaporones” (Pharma Mar, S.A.U., priority 2002, dated 2009).
Like-named read-outs stand apart in the source and are kept apart here.

Columns and labels:
Format in all cases: cell-based
[1] = tested on: DU-145; assay: Inhibition of cell growth by colorimetric SRB assay, DU-145; settings: Homo sapiens; for IC (total growth inhibition): read-out: TGI
Summary of the method: (§1)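 Absorbance of solubilized bound SRB (490 nm) quantified cell growth and viability after cells were exposed to compound for 48 h. Seeding was 5×10^3 cells per well in RPMI 1640/10% FBS, with 18 h attachment beforehand. GI, TGI and LC were calculated from means of triplicate wells.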

[2] = tested on: LNCaP; assay: Inhibition of cell growth by colorimetric SRB assay, LN-caP; settings: Homo sapiens; for IC (total growth inhibition): read-out: TGI
Summary of the method: as §1

[3] = tested on: IGROV; assay: Inhibition of cell growth by colorimetric SRB assay, IGROV; settings: Homo sapiens; for IC (total growth inhibition): read-out: TGI
Summary of the method: as §1

[4] = tested on: IGROV-ET; assay: Inhibition of cell growth by colorimetric SRB assay, IGROV-ET; settings: Homo sapiens; for IC (total growth inhibition): read-out: TGI
Summary of the method: as §1

[5] = tested on: SK-BR-3; assay: Inhibition of cell growth by colorimetric SRB assay, SK-BR-3; settings: for CC50 / GI50: Homo sapiens; for TGI: total growth inhibition
Summary of the method: as §1

[6] = tested on: SK-MEL-28; assay: Inhibition of cell growth by colorimetric SRB assay, MEL-28; settings: Homo sapiens; for IC (total growth inhibition): read-out: TGI
Summary of the method: as §1

[7] = tested on: A-549; assay: Inhibition of cell growth by colorimetric SRB assay, A-549; settings: Homo sapiens; for IC (total growth inhibition): read-out: TGI
Summary of the method: as §1

[8] = tested on: K-562; assay: Inhibition of cell growth by colorimetric SRB assay, K-562; settings: Homo sapiens; for IC (total growth inhibition): read-out: TGI
Summary of the method: as §1

[9] = tested on: PANC-1; assay: Inhibition of cell growth by colorimetric SRB assay, PANC-1; settings: Homo sapiens; for IC (total growth inhibition): read-out: TGI
Summary of the method: as §1

[10] = tested on: HT-29; assay: Inhibition of cell growth by colorimetric SRB assay, HT-29; settings: Homo sapiens; for IC (total growth inhibition): read-out: TGI
Summary of the method: as §1

[11] = tested on: LoVo; assay: Inhibition of cell growth by colorimetric SRB assay, LOVO; settings: Homo sapiens; for LC50: read-out: LC50; for IC (total growth inhibition): read-out: TGI
Summary of the method: as §1

[12] = tested on: LoVo-Dox; assay: Inhibition of cell growth by colorimetric SRB assay, LOVO-DOX; settings: Homo sapiens; for LC50 (concentration for 50% cell killing): read-out: LC50; for IC (total growth inhibition): read-out: TGI
Summary of the method: as §1

[13] = tested on: HeLa; assay: Inhibition of cell growth by colorimetric SRB assay, HELA; settings: Homo sapiens; for IC (total growth inhibition): read-out: TGI
Summary of the method: as §1

[14] = tested on: HeLa-APL; assay: Inhibition of cell growth by colorimetric SRB assay, HELA-APL; settings: Homo sapiens; for IC (total growth inhibition): read-out: TGI; for CC50: cell killing, read-out: LC50 (the source's name)
Summary of the method: as §1

[15] = SK-MEL-28, MEL-28, 48 hours exposure
[16] = DU-145, 48 hours exposure, cell killing, read-out: LC50 (the source's name)
[17] = LN-caP, 48 hours exposure, cell killing, read-out: LC50 (the source's name)
[18] = 48 hours exposure, cell killing, read-out: LC50 (the source's name)
[19] = IGROV-ET, 48 hours exposure, cell killing, read-out: LC50 (the source's name)
[20] = SK-BR-3, 48 hours exposure, cell killing, read-out: LC50 (the source's name)
[21] = SK-MEL-28, MEL-28, 48 hours exposure, cell killing, read-out: LC50 (the source's name)
[22] = A549, A-549, 48 hours exposure, cell killing, read-out: LC50 (the source's name)
[23] = K562, K-562, 48 hours exposure, cell killing, read-out: LC50 (the source's name)
[24] = PANC-1, 48 hours exposure, cell killing, read-out: LC50 (the source's name)
[25] = HT-29, 48 hours exposure, cell killing, read-out: LC50 (the source's name)
[26] = LOVO, 48 hours exposure, cell killing
[27] = LOVO-DOX, 48 hours exposure, cell killing
[28] = HELA, 48 hours exposure, cell killing, read-out: LC50 (the source's name)

C=C(C(=O)[C@H](COC(C)=O)[C@H](O)C1(C)O[C@@H]1[C@@H](C)/C=C\C)[C@@H](O)CC(=O)CC (stereo partly drawn) [Compound 1]
CC50 ([1]; DU-145, 48 h, read-out: LC50): ≥ 25.2 µM | GI50 ([1]; DU-145, 48 hours exposure): 3.66 µM | IC (total growth inhibition) ([1]; DU-145, 48 hours exposure): 10.2 µM | CC50 ([2]; 48 h, read-out: LC50): ≥ 25.2 µM | GI50 ([2]; LN-caP, 48 hours exposure): 1.45 µM | IC (total growth inhibition) ([2]; LN-caP, 48 hours exposure): 6.31 µM | CC50 ([3]; 48 h, read-out: LC50): 17.6 µM | GI50 ([3]; 48 hours exposure): 1.63 µM | IC (total growth inhibition) ([3]; 48 hours exposure): 5.67 µM | CC50 ([4]; 48 h, read-out: LC50): 23.7 µM | GI50 ([4]; IGROV-ET, 48 hours exposure): 3.1 µM | IC (total growth inhibition) ([4]; IGROV-ET, 48 hours exposure): 8.58 µM | CC50 ([5]; SK-BR-3, 48 h, read-out: LC50): 3.43 µM | GI50 ([5]; SK-BR-3, 48 hours exposure): 0.469 µM | TGI ([5]; SK-BR-3, 48 hours exposure): 1.11E−05 Molar | CC50 ([6]; SK-MEL-28, 48 h, read-out: LC50): 13.6 µM | GI50 [6, 15]: 2.72 µM | IC (total growth inhibition) [6, 15]: 6.1 µM | CC50 ([7]; A549, 48 h, read-out: LC50): 23.5 µM | GI50 ([7]; A549, A-549, 48 hours exposure): 1.1 µM | IC (total growth inhibition) ([7]; A549, A-549, 48 hours exposure): 5.04 µM | CC50 ([8]; K562, 48 h, read-out: LC50): 24.6 µM | GI50 ([8]; K562, K-562, 48 hours exposure): 1.99 µM | IC (total growth inhibition) ([8]; K562, K-562, 48 hours exposure): 7.36 µM | CC50 ([9]; PANC-1, 48 h, read-out: LC50): 21.3 µM | GI50 ([9]; PANC-1, 48 hours exposure): 3.33 µM | IC (total growth inhibition) ([9]; PANC-1, 48 hours exposure): 8.4 µM | CC50 ([10]; HT-29, 48 h, read-out: LC50): 13.4 µM | GI50 ([10]; HT-29, 48 hours exposure): 1.67 µM | IC (total growth inhibition) ([10]; HT-29, 48 hours exposure): 5.37 µM | LC50 ([11]; LoVo, 48 h): 12.6 µM | GI50 ([11]; LOVO, 48 hours exposure): 1.62 µM | IC (total growth inhibition) ([11]; LOVO, 48 hours exposure): 4.87 µM | LC50 (concentration for 50% cell killing) ([12]; 48 h): 21.1 µM | GI50 ([12]; LOVO-DOX, 48 hours exposure): 3.13 µM | IC (total growth inhibition) ([12]; LOVO-DOX, 48 hours exposure): 8.1 µM | CC50 ([13]; HeLa, 48 h, read-out: LC50): 20.5 µM | GI50 ([13]; HELA, 48 hours exposure): 1.99 µM | IC (total growth inhibition) ([13]; HELA, 48 hours exposure): 6.66 µM | GI50 ([14]; 48 h): 1.72 µM | IC (total growth inhibition) ([14]; 48 h): 6.23 µM

C/C=C\[C@H](C)[C@H]1O[C@@]1(C)[C@@H](O)[C@@H](CO)C(=O)[C@@H](CO)[C@@H](O)CC(=O)CC [3c + 4c]
GI50 ([1]; DU-145, 48 hours exposure): 0.55 µM | CC50 [1, 16]: 26.8 µM | IC (total growth inhibition) ([1]; DU-145, 48 hours exposure): 4.16 µM | GI50 ([2]; LN-caP, 48 hours exposure): 0.703 µM | CC50 [2, 17]: 26.8 µM | IC (total growth inhibition) ([2]; LN-caP, 48 hours exposure): 4.56 µM | GI50 ([3]; 48 hours exposure): 0.553 µM | CC50 [3, 18]: 20.9 µM | IC (total growth inhibition) ([3]; 48 hours exposure): 3.57 µM | GI50 ([4]; IGROV-ET, 48 hours exposure): 0.703 µM | CC50 [4, 19]: 26.8 µM | IC (total growth inhibition) ([4]; IGROV-ET, 48 hours exposure): 6.95 µM | GI50 ([5]; SK-BR-3, 48 hours exposure): 1.16 µM | CC50 [5, 20]: 26.8 µM | TGI ([5]; SK-BR-3, 48 hours exposure): 6.07E−06 Molar | GI50 [6, 15]: 0.634 µM | CC50 [6, 21]: 26.8 µM | IC (total growth inhibition) [6, 15]: 7.25 µM | GI50 ([7]; A549, A-549, 48 hours exposure): 0.913 µM | CC50 [7, 22]: 26.8 µM | IC (total growth inhibition) ([7]; A549, A-549, 48 hours exposure): 13.4 µM | GI50 ([8]; K562, K-562, 48 hours exposure): 4.59 µM | CC50 [8, 23]: 26.8 µM | IC (total growth inhibition) ([8]; K562, K-562, 48 hours exposure): 11.9 µM | GI50 ([9]; PANC-1, 48 hours exposure): 1.03 µM | CC50 [9, 24]: 26.8 µM | IC (total growth inhibition) ([9]; PANC-1, 48 hours exposure): 13.3 µM | GI50 ([10]; HT-29, 48 hours exposure): 0.564 µM | CC50 [10, 25]: 26.8 µM | IC (total growth inhibition) ([10]; HT-29, 48 hours exposure): 6.69 µM | GI50 ([11]; LOVO, 48 hours exposure): 0.714 µM | LC50 [11, 26]: 26.8 µM | IC (total growth inhibition) ([11]; LOVO, 48 hours exposure): 7.01 µM | GI50 ([12]; LOVO-DOX, 48 hours exposure): 0.846 µM | LC50 (concentration for 50% cell killing) [12, 27]: 26.8 µM | IC (total growth inhibition) ([12]; LOVO-DOX, 48 hours exposure): 6.18 µM | GI50 ([13]; HELA, 48 hours exposure): 0.62 µM | CC50 [13, 28]: 26.8 µM | IC (total growth inhibition) ([13]; HELA, 48 hours exposure): 4.78 µM | CC50 ([14]; HELA-APL, 48 hours exposure): 26.8 µM | GI50 ([14]; HELA-APL, 48 hours exposure, read-out: GI50): 0.593 µM | IC (total growth inhibition) ([14]; HELA-APL, 48 hours exposure, total growth inhibition): 8.67 µM

C/C=C\[C@H](C)[C@H]1OC1(C)[C@@H](O[Si](C)(C)C(C)(C)C)[C@@H](CO[Si](C)(C)C(C)(C)C)C(=O)[C@H](CO[Si](C)(C)C(C)(C)C)[C@@H](CC(=O)CC)O[Si](C)(C)C(C)(C)C (stereo partly drawn) [Compound 19b]
GI50 ([1]; DU-145, 48 hours exposure): 12 µM | CC50 [1, 16]: 12 µM | IC (total growth inhibition) ([1]; DU-145, 48 hours exposure): 12 µM | GI50 ([2]; LN-caP, 48 hours exposure): 12 µM | CC50 [2, 17]: 12 µM | IC (total growth inhibition) ([2]; LN-caP, 48 hours exposure): 12 µM | GI50 ([3]; 48 hours exposure): 12 µM | CC50 [3, 18]: 12 µM | IC (total growth inhibition) ([3]; 48 hours exposure): 12 µM | GI50 ([4]; IGROV-ET, 48 hours exposure): 12 µM | CC50 [4, 19]: 12 µM | IC (total growth inhibition) ([4]; IGROV-ET, 48 hours exposure): 12 µM | GI50 ([5]; SK-BR-3, 48 hours exposure): 6.15 µM | CC50 [5, 20]: 12 µM | TGI ([5]; SK-BR-3, 48 hours exposure): 1.17E−05 Molar | GI50 [6, 15]: 12 µM | CC50 [6, 21]: 12 µM | IC (total growth inhibition) [6, 15]: 12 µM | GI50 ([7]; A549, A-549, 48 hours exposure): 12 µM | CC50 [7, 22]: 12 µM | IC (total growth inhibition) ([7]; A549, A-549, 48 hours exposure): 12 µM | GI50 ([8]; K562, K-562, 48 hours exposure): 12 µM | CC50 [8, 23]: 12 µM | IC (total growth inhibition) ([8]; K562, K-562, 48 hours exposure): 12 µM | GI50 ([9]; PANC-1, 48 hours exposure): 12 µM | CC50 [9, 24]: 12 µM | IC (total growth inhibition) ([9]; PANC-1, 48 hours exposure): 12 µM | GI50 ([10]; HT-29, 48 hours exposure): 12 µM | CC50 [10, 25]: 12 µM | IC (total growth inhibition) ([10]; HT-29, 48 hours exposure): 12 µM | GI50 ([11]; LOVO, 48 hours exposure): 12 µM | LC50 [11, 26]: 12 µM | IC (total growth inhibition) ([11]; LOVO, 48 hours exposure): 12 µM | GI50 ([12]; LOVO-DOX, 48 hours exposure): 12 µM | LC50 (concentration for 50% cell killing) [12, 27]: 12 µM | IC (total growth inhibition) ([12]; LOVO-DOX, 48 hours exposure): 12 µM | GI50 ([13]; HELA, 48 hours exposure): 12 µM | CC50 [13, 28]: 12 µM | IC (total growth inhibition) ([13]; HELA, 48 hours exposure): 12 µM | CC50 ([14]; HELA-APL, 48 hours exposure): 12 µM
